{
  "source": "patent US20170189409A1",
  "about": "“MEDICAL USE” (Almirall, S.A., priority 2014, published 2017)",
  "key": {"[1]": {"tested_on": "anti-KLH antibody response", "assay": "Primary T-dependent antibody response (TDAR) to KLH in mice", "assay_type": "in vivo", "method": "This assay allows a global assessment of the effect of a drug candidate on antigen presentation, helper T lymphocyte function and B lymphocyte dependent antibody production.\nIn both cases, the administration of the test compound started on the day of sensitization (day +1, KLH 2 mg/mouse, intravenously). […] A possible reason for this discrepancy is that the lymphocyte count of the concurrent vehicle group of the latter study was abnormally lower than usual, which could mask a potential effect of the test compound on this parameter."}, "[2]": {"tested_on": "anti-KLH antibody response", "assay": "Secondary TDAR assay to KLH in mice", "assay_type": "in vivo", "method": "This assay included two immunizations with KLH separated 15 days apart (50 μg KLH/animal, intraperitoneally) and specific IgG anti-KLH levels were measured on day +11 after the second immunization. Administration of test compound (0.3 and 3 mg/kg) started on the day of second immunization (day +1) and then once daily for the next 9 days."}, "[3]": {"tested_on": "anti-Dsg3 and anti-dsDNA autoantibody production", "assay": "MRL/lpr mouse spontaneous autoimmune disease model, autoantibody production", "assay_type": "in vivo", "method": "The primary endpoint of this study was assessment of autoantibody production, including pemphigus-specific anti-Dsg3 antibodies.\nThe prednisolone dose was selected based on previous reports and corresponds to a high CS dose in humans.\nAs autoantibodies develop progressively and may follow a different course in each animal, anti-dsDNA antibody levels were measured on week 12 and used to uniformly distribute animals to dosing groups. At week 13, daily treatments were initiated and continued for 6 weeks. Antibodies to dsDNA and Dsg3 were measured at weeks 12, 15, 17 and 19. Skin lesions were inspected visually throughout the study. Effects on other parameters such as proteinuria, as well as general hematological, serological, and histological signs were evaluated at study completion."}, "[4]": {"tested_on": "autoantibody-mediated cutaneous lesions", "assay": "Immunization-induced mouse model of epidermolysis bullosa acquista (EBA)", "assay_type": "in vivo, B6.SJL-H2s mice", "details": "for body weight gain: 6 week treatment, LAS191954 3 mg/kg/day, methylprednisolone 20 mg/kg/day", "method": "Induction of experimental EBA was performed as described in […] et al., J Immunol. 2013; 191:2978-2988. Briefly, 6-10 week B6.SJL-[…] mice were immunized with an emulsion of a recombinant protein encompassing the vWFA2 binding domain of mouse type VII collagen (COL7) in adjuvant (Titermax). After immunization, mice were weekly evaluated for the presence and extend of clinical disease, measured as percentage of body surface affected by skin lesions (erythema, blisters, erosions and crusts). […] Treatments were carried out over a 6-week period, and mice were evaluated for the extend of clinical disease (primary endpoint) weekly. […] For better comparability between experiments, the affected body surface area at weeks 1-6 was related to that at inclusion (set at 1). Body weight was monitored weekly during treatment."}, "[5]": {"biological_target": "PI3K p110α (Homo sapiens, UniProt P42336)", "sequence (P42336 whole entry)": "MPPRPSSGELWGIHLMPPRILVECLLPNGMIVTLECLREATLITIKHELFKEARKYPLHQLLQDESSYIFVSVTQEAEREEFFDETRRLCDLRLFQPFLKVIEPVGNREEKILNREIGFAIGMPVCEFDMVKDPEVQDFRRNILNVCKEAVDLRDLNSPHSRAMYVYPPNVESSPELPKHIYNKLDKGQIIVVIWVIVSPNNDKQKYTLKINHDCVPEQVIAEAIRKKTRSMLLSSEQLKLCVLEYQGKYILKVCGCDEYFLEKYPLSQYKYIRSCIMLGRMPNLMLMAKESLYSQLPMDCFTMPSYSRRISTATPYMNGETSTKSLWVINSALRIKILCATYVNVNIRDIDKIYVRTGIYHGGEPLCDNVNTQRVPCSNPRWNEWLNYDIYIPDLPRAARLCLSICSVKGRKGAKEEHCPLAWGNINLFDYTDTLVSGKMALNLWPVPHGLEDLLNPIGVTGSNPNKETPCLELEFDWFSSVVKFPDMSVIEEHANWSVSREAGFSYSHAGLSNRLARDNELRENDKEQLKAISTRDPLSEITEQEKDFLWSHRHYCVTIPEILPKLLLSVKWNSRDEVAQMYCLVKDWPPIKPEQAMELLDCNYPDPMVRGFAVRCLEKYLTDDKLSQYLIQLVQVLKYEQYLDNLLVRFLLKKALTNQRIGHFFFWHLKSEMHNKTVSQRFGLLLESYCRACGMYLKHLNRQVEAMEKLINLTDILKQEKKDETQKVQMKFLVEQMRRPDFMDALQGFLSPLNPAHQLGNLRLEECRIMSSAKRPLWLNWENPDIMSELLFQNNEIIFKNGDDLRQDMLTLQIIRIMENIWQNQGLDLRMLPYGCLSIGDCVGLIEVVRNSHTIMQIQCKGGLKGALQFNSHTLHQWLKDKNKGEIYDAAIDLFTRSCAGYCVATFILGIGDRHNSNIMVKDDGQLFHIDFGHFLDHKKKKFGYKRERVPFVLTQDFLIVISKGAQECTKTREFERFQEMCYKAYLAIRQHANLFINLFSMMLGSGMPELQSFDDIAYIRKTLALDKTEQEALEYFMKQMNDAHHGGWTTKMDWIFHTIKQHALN", "sequence (P27986 whole entry partner)": "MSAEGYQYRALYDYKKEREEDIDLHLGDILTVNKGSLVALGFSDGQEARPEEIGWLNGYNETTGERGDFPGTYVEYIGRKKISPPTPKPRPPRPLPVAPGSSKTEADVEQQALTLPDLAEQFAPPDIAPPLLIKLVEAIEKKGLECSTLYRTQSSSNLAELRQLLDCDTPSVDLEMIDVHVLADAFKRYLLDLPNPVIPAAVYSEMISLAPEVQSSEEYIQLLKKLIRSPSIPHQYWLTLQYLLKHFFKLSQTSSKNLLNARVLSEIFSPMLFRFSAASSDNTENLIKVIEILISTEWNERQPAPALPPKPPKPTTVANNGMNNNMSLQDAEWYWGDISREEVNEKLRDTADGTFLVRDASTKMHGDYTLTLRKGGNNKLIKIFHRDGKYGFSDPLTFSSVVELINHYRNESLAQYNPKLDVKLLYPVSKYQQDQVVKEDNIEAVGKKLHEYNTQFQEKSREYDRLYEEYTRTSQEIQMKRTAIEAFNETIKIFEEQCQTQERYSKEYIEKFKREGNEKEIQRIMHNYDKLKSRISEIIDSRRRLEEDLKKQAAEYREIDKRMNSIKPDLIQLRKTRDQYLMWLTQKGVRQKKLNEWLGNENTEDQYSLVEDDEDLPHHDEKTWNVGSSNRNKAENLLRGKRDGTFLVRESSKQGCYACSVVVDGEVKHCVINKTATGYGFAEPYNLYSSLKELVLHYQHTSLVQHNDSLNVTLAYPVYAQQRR", "details": "compound pre-incubation time of 30 min"}, "[6]": {"biological_target": "PI3K p110β (Homo sapiens, UniProt P42338)", "sequence (P42338 whole entry)": "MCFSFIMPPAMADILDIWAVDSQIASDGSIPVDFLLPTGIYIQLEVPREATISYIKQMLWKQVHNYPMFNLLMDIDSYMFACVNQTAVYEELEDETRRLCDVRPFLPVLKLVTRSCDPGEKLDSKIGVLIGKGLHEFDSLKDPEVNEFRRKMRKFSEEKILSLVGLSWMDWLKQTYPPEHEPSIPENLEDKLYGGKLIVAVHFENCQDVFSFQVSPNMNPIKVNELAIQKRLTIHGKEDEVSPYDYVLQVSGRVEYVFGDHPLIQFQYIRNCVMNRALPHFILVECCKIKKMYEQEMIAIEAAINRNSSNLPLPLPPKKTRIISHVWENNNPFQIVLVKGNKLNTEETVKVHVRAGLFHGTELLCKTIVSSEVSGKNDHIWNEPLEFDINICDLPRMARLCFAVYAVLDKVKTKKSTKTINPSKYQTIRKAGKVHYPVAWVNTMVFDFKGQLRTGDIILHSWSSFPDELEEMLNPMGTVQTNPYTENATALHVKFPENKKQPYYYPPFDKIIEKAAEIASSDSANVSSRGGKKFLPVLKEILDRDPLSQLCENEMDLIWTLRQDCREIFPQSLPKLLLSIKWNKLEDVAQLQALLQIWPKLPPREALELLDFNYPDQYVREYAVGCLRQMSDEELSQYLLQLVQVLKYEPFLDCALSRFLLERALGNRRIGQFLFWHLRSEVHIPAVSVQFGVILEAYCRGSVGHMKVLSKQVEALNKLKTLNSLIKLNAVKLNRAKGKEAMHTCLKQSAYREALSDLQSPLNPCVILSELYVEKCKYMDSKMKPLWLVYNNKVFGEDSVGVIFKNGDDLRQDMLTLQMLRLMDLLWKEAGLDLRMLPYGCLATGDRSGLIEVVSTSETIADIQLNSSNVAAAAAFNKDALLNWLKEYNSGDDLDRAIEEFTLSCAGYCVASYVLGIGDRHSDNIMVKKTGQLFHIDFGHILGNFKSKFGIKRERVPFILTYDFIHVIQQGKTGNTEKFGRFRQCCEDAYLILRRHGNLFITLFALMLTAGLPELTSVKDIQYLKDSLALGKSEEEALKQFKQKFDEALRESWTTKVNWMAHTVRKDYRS", "sequence (P27986 whole entry partner)": "as the sequence (P27986 whole entry partner) above", "details": "compound pre-incubation time of 30 min"}, "[7]": {"tested_on": "anti-Dsg3 antibody-induced skin damage", "assay": "Neonatal passive transfer model", "details": "for mice with blisters: 8 mice treated"}, "[8]": {"details": "week 19 versus week 12 (FIG. 3)"}},
  "data": [
    {"molecule": "C[C@H](Nc1ncnc(N)c1C#N)c1nn2ccc(C#N)c2c(=O)n1-c1ccccc1", "note": "[LAS191954, (S)-2-(1-(6-amino-5-cyanopyrimidin-4-ylamino)ethyl)-4-oxo-3-phenyl-3,4-dihydropyrrolo[1,2-f][1,2,4]triazine-5-carbonitrile]", "values": [
      {"measurement": "ID50, primary IgM antibody responses to KLH", "setting": "[1]; day +5 PI, 4 days of daily treatment, 0.03-10 mg/kg", "result": 0.12, "unit": "mg/kg"},
      {"measurement": "ID50, primary IgG antibody responses to KLH", "setting": "[1]; day +15 PI, 14-day dosing, 0.03-1 mg/kg", "result": 0.17, "unit": "mg/kg"},
      {"measurement": "lymphocyte count", "setting": "[1]; primary IgG study", "result": "no apparent effect"},
      {"measurement": "general health status of the animals", "setting": "[1]; primary IgM and IgG studies", "result": "without apparent effects"},
      {"measurement": "WBC counts", "setting": "[1]; primary IgM study, mainly reduced peripheral blood lymphocytes", "result": "lower WBC counts"},
      {"measurement": "ID50, secondary IgG antibody responses to KLH", "setting": "[2]; day +11 after second immunization, 0.3 and 3 mg/kg once daily", "result": "<0.3", "unit": "mg/kg"},
      {"measurement": "lymphocyte counts", "setting": "[2]; secondary TDAR, 0.3 and 3 mg/kg", "result": "reduced lymphocyte counts"},
      {"measurement": "ID50, anti-Dsg3 and anti-dsDNA autoantibody production", "setting": "[3]; Mrl/Lpr model, repeated administration", "result": "<3", "unit": "mg/kg"},
      {"measurement": "reduction of anti-dsDNA antibody titers", "setting": "[3]; [8]", "result": 10, "unit": "%"},
      {"measurement": "body weight gain", "setting": "[4]", "result": "not altered"},
      {"measurement": "overall disease activity, AUC of clinical score", "setting": "[4]; LAS191954 orally 3 mg/kg/day, 6 weeks, versus vehicle", "result": "significant reduction in the accumulative clinical score"},
      {"measurement": "IC50", "setting": "[5]", "result": 8.22, "unit": "µM"},
      {"measurement": "IC50", "setting": "[6]", "result": 0.0942, "unit": "µM"},
      {"measurement": "% with blisters", "setting": "[7]; PV IgG + LAS191954 1 mg/kg", "result": 75, "unit": "%"},
      {"measurement": "mice with blisters", "setting": "[7]; PV IgG + LAS191954 1 mg/kg", "result": 6},
      {"measurement": "% with blisters", "setting": "[7]; PV IgG + LAS191954 10 mg/kg", "result": 100, "unit": "%"},
      {"measurement": "mice with blisters", "setting": "[7]; PV IgG + LAS191954 10 mg/kg", "result": 8},
      {"measurement": "effect on anti-Dsg3 antibody-induced skin damage", "setting": "[7]; mouse, in vivo", "result": "no direct effect"}
    ]},
    {"molecule": "C[C@H]1C[C@@H]2[C@H]([C@@H](O)C[C@@]3(C)[C@H]2CC[C@]3(O)C(=O)CO)[C@@]2(C)C=CC(=O)C=C12", "note": "[Methylprednisolone, reference compound]", "values": [
      {"measurement": "body weight gain", "setting": "[4]", "result": "diminished the body weight gain"}
    ]},
    {"molecule": "C[C@]12C=CC(=O)C=C1CC[C@@H]1[C@@H]2[C@@H](O)C[C@@]2(C)[C@H]1CC[C@]2(O)C(=O)CO", "note": "[Prednisolone, prednisolone, reference compound]", "values": [
      {"measurement": "change of anti-dsDNA antibody levels at the end of treatment", "setting": "[3]; [8]", "result": "doubled"}
    ]}
  ]
}
